“Also recorded” adds a separate entry of the source. Read-outs that look alike come from different tables or passages of the source.
Experiments:
[1] = system: BuChE; settings: read-out: IC50 against BuChE, cited from earlier work
[2] = biological target: T1, AChE (Homo sapiens, UniProt P22303); settings: cited from earlier work; for IC50: read-out: IC50 against AChE
[3] = biological target: BChE (Homo sapiens, UniProt P06276); assay: BChE inhibition, modified Ellman's spectrophotometric assay; type: biochemical
Experimental: (§1) A previously described modified protocol of Ellman's spectrophotometric assay in clear flat-bottomed, 96-well plates, was used. […] The absorbance of each well was measured at 415 nm using a microplate reader. […]

[4] = biological target: T1, AChE; assay: biochemical; settings: mean ± SD
Experimental: as §1

[5] = biological target: T1, AChE; assay: Kinetic study of AChE inhibition (Lineweaver-Burk plots, Ellman's method); type: biochemical
Experimental: The kinetic study of AChE was carried out at five different concentrations (0–8 µM) of compound 4ad by Ellman's method. […]. The inhibition constant Ki was calculated by the plot of slopes versus the corresponding concentrations of the 4ad.

[6] = Fig. 2 traditional AChE inhibitors

Chain of BChE (P06276 29-602): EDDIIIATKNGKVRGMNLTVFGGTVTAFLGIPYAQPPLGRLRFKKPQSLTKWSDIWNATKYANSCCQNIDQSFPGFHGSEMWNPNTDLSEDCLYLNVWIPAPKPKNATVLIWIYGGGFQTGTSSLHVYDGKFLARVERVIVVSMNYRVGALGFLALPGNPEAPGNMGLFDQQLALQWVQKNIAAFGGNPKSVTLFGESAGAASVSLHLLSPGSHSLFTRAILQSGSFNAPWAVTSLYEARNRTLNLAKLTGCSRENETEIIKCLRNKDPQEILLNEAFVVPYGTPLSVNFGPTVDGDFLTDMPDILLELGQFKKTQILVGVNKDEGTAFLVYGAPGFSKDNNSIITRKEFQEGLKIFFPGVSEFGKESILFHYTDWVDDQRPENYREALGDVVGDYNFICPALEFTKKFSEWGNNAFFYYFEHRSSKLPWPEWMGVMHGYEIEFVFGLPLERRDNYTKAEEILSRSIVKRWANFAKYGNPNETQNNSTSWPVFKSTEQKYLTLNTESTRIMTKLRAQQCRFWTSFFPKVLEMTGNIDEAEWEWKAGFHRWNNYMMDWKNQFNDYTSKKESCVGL
T1 sequence (P22303 32-614): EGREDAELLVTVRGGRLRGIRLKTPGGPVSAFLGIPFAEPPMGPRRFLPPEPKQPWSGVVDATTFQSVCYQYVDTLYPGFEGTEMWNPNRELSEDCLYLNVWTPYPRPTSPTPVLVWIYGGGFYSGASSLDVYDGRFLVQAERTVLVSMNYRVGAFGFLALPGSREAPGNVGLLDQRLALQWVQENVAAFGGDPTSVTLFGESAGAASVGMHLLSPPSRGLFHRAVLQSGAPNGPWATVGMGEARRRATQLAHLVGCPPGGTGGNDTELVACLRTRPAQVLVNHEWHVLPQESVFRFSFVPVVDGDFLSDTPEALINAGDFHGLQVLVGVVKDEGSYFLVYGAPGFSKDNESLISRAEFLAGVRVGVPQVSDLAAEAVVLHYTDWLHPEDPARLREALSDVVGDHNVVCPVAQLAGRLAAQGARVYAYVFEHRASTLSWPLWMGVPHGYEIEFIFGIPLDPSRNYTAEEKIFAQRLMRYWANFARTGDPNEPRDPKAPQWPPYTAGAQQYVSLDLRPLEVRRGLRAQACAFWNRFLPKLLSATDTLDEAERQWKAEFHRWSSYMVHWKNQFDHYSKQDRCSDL

SMILES | IC50 ([2]; Fig. 3) | IC50 [1, 6] | IC50 [2, 6] | other results
CN1CCC2COc3ccccc3C21 (stereo not shown) [H] | 7.75 µM | – | – | IC50 ([1]; Fig. 3): 7.23 µM
CSc1c([N+](=O)[O-])c(C(C#N)C(N)=O)c(-c2ccc(Cl)cc2)n1-c1ccc(O)cc1 (stereo not shown) [Compound 4ad, 2-(2-(4-chlorophenyl)-1-(4-hydroxyphenyl)-5-(methylthio)-4-nitro-1H-pyrrol-3-yl)-2-cyanoacetamide] | – | – | – | BChE inhibition (in words) [3]: no significant inhibition; also recorded: inactive; inhibition at 50 µM ([3]; 50 µM compound, mean ± SD, NA = not active): 20 ± 1.33%; inhibition at 50 µM ([4]; 50 µM compound, NA = not active): 89.8 ± 2.36%; IC50 [4]: 2.95 ± 1.31 µM; type of AChE inhibition ([5]; Lineweaver-Burk plots, Km and Vmax reduced with increasing inhibitor concentration): uncompetitive; Ki ([5]; estimated from plot of Km versus concentrations of 4ad (0-8 µM), substrate acetylthiocholine 0.1-1 mM, read-out: inhibition constant, Ki): 2.84 µM
O=C(NC1CCN(Cc2ccccc2)CC1)c1cc(-c2cccc([N+](=O)[O-])c2)on1 [F] | – | 15.2 µM | 16.1 µM | –
O=C1c2ccccc2C(=O)N1Cc1cc[n+](Cc2ccc(F)cc2)cc1 [B] | – | 8.71 µM | 0.77 µM | –
c1ccc(C[n+]2ccc(-c3nc4ccccc4s3)cc2)cc1 [C] | – | 0.182 µM | 0.014 µM | –
CCOC(=O)c1[nH]c(-c2ccccc2)cc1-c1ccccc1 [I] | 128 µM | – | – | Ki ([2]; Fig. 3, read-out: Ki against AChE): 104 ± 15.4 µM

From article PMC9454393 (Scientific Reports, 2022)
